Key:
[1] = test system: Pseudomonas aeruginosa ΔhflC; experiment: Chlorate sensitivity assay and chlorate quantification, ΔhflC versus wild type; format: cell-based; conditions: 1 mM chlorate
Experimental: (§1) Chlorate sensitivity assay was then performed. In particular, to test mutants for chlorate sensitivity, overnight cultures of each strain were grown aerobically in LB with 40 mM KNO3. Cultures were pelleted, washed twice with LB to remove residual KNO3, and resuspended in LB without (control) or with 1 mM NaClO3 to final OD500=1. Cultures were moved to the anaerobic glove box to adapt to anoxia.
[…] At 72 hours, part of the culture was also pelleted, and supernatant collected for quantifying chlorate concentrations via ion chromatography.
(§2) Chlorate quantification was then performed via ion chromatography. In particular, culture samples were pelleted, and the supernatant was diluted 1:10 in dH2O in a 0.5 mL vial (Thermo Fisher Scientific catalog numbers 038010 and 038011). Chlorate concentrations were determined using a Dionex ICS 2000 ion chromatography as described previously (Spero and Newman 2018).) at the Environmental Analysis Center at Caltech.

[2] = test system: Pseudomonas aeruginosa ΔnarGHJI; experiment: Chlorate sensitivity assay and chlorate quantification, ΔnarGHJI versus wild type; format: cell-based; conditions: 1 mM chlorate, 72 hours
Experimental: as §1
Cultures were incubated at 37° C. for 72 hours, after which they were removed from the anaerobic glove box to determine viable cell counts for calculating percent survival as described previously) (Spero and Newman 2018).). At 72 hours, part of the culture was also pelleted, and supernatant collected for quantifying chlorate concentrations via ion chromatography.
as §2

[O-][Cl+2]([O-])O [chlorate, NaClO3]
chlorate resistance (% survival) relative to WT ([1]; over the course of 48 hours (FIG. 3A)): more resistant to chlorate than WT | Nar activity, chlorate reduction (% chlorate remaining) relative to WT ([1]; over the course of 48 hours (FIG. 3B)): lower rates of chlorate reduction | chlorate resistance (% survival) relative to WT ([2]; anaerobic, 37° C. (FIG. 2A)): more resistant to chlorate than WT | Nar activity, chlorate reduction (% chlorate remaining) relative to WT ([2]; ion chromatography (FIG. 2B)): lower rates of chlorate reduction

Reference: patent publication US20210322462A1, “WOUND PREVENTION AND/OR TREATMENT AND RELATED COMPOUNDS, MATRICES, COMPOSITIONS, METHODS AND SYSTEMS” (CALIFORNIA INSTITUTE OF TECHNOLOGY, priority 2020, published 2021)
